# Assay results from patent US11266642B2, “Small molecule inhibitors of HLA-DR3 binding for treating autoimmune thyroiditis” (ICAHN SCHOOL OF MEDICINE AT MOUNT SINAI, priority 2015, dated 2022).
# Columns and labels:
# [1] = test system: T-cells of hTg immunized mice; experiment: CFSE T-cell proliferation of splenocytes from hTg immunized NOD-DR3 mice, compound added ex vivo; assay type: cell-based, mouse; conditions: final concentration 0.001 mM
# Procedure: Female NOD-DR3 mice, 4-6 weeks old, were injected subcutaneously with human thyroglobulin (hTg) (Cell Sciences, Canton, Mass.) in complete Freund adjuvant (CFA) (Sigma) to induce EAT. Mice were immunized with hTg on day 0 and boosted on day 7; mice were sacrificed on day 21. For some mice, PC61 (anti-CD25) antibody (ATCC) at 7.5 mg/mL was injected i.p. on day (−4) and day 3 to deplete T regulatory (CD25+) cells and augment the autoimmune response to hTg.
# Spleen and draining lymph nodes were collected from mice upon sacrifice. The spleens and draining lymph nodes were harvested in complete RPMI (Corning) supplemented with 10% FBS (Sigma-Aldrich,) and 1 mM sodium pyruvate (Sigma-Aldrich). They were cut and pressed in circular motion using a plunger from a 10 mL syringe. The suspension was filtered through a 100 μm cell strainer twice and centrifuged at 200×g for 10 minutes. The supernatant was discarded. […] The pellet was resuspended in RPMI and the cells were counted and plated. […]
# The CFSE-labeled cells were plated at 2×10^5 cells per well in 100 μL of medium (RPMI/10% FBS). […] The results were analyzed using Flowjo (Tree Star, Ashland, Oreg.). The stimulation index was calculated by using the following formula: Stimulation index=[% proliferating lymphocytes (hTg, peptide or mitogen-treated)]/[% proliferating lymphocytes (medium-treated)]. […]
# [2] = target: T1, HLA-DR3 on VAVY cells (HLA-DRβ1-Arg74 positive) (Homo sapiens, UniProt P01903+P01911, A100K/A102G/A103R/A169T/F55Y/I96L/K41T/L162R/M171V/P40S/Q125H/Q178H/Q39Y/R42S/S66N/T106N/T262R/W38E/Y61H); experiment: Tg.2098 peptide binding to VAVY cells, flow cytometry; assay type: cell-based; conditions: 0.025 mM Ia, 7 h pre-incubation; 0.5 μM Tg.2098, 24 h; 42.7% without Ia
# T1 construct: VAVY B-cell line that is homozygous for DR3 (confirmed to contain DRβ1-Arg74); host or cells: VAVY B-cell line
# Procedure: VAVY cells (European Collection of Cell Cultures) were cultured in RPMI (ATCC, Manassas, Va.) supplied with 10% FBS (Sigma-Aldrich, St. Louis, Mo.), 1% Penicillin-Streptomycin (Corning, N.Y.), 2 mM glutamine (Corning, N.Y.) and […] ciprofloxacin hydrochloride (Hospira, Lake Forest, Ill.). Cells were grown at 37° C., 5% CO2 and passaged 1-2 times a week. Cells expressing DR2 (National Development and Research Institutes, Inc) were cultured using the same conditions as VAVY cells. N-terminal biotinylated peptide Tg.2098 was used to test for binding to VAVY cells which express HLA-DR3 on their surface (HLA-DRβ1-Arg74 positive). APC Streptavidin (BD Biosciences, Franklin Lakes, N.J.) was used to detect the biotinylated peptides. A scrambled peptide of Tg.2098 (scr2098) was used as a negative control. VAVY cells were seeded at 2.5×10^6 cells/mL in a 24-well plate (BD Biosciences) and pre-incubated for 7 hours with 0.025 mM of compound Ia or 40% Captisol (Ligand Pharmaceuticals, Inc, La Jolla, Calif.) [the vehicle used to dissolve test compound in this experiment], before 0.5 μM Tg.2098 was added. After 24 h incubation, cells were stained with PE mouse anti-human HLA-DR (BD Biosciences) and APC Streptavidin to detect binding of the peptide to VAVY cells and the inhibitory effect of Compound Ia. Inhibition was analyzed by flow cytometry. As a negative control, cells expressing HLA-DR2 were pre-incubated with example Ia or 40% Captisol, before biotinylated myelin basic protein (MBP) 87-99 (known binder to HLA-DR2) was added and incubated for 24 hours. HLA-DR2 cells were stained with PE mouse anti-human HLA-DR and APC Streptavidin to detect binding of biotinylated MBP87-99 to DR2 expressing cells and to assess the inhibitory effect of compound Ia on peptide binding. To confirm the ELISA results we performed binding inhibition studies using the VAVY B-cell line that is homozygous for DR3 (confirmed to contain DRβ1-Arg74). […]
# T1 sequence (P01903 26-254, other chains not shown): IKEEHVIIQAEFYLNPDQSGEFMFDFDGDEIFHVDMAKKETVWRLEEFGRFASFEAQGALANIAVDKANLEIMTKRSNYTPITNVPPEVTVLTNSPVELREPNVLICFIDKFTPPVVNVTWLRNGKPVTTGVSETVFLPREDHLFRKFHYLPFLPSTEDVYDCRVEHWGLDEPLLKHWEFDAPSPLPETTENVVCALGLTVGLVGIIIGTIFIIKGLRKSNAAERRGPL
smiles,measurement,setting,value
"COc1ccc2cc1Oc1ccc(cc1)C[C@H]1c3c(cc4c(c3Oc3cc5c(cc3OC)CCN(C)[C@@H]5C2)OCO4)CCN1C [Compound Ia, cepharanthine]",activation of T-cells of hTg immunized mice by Tg.2098,"[1]; Tg.2098 20 μg/ml, p=0.0079",significantly blocked
same,activation of T-cells of hTg immunized mice by hTg,"[1]; hTg 40 μg/mL, p=0.0005",significantly blocked
same,binding of Tg.2098 to VAVY cells in the presence of Ia,[2],16.6%
